Values of other authors in publication PMC6544043 (ACS infectious diseases, 2019).
pIC50: −log10 of the molar value.

Target: adenosine/guanosine preferring nucleoside ribohydrolase (AGNH) (Trichomonas vaginalis, UniProt A2EYV3)
Conditions: read-out: inhibitor potency; cited from earlier work

## OC[C@H]1O[C@@H](n2cnc3c(NC4CCCC4)nc(Cl)nc32)[C@H](O)[C@@H]1O [2-chloro-N(6)-cyclopenty-ladenosine]
  pIC50: 5.05
